The results in this text go back to patent US20230049917A1, “Pharmaceutical Composition of CASR Modulators and Methods and Uses Thereof” (Lupin Limited, priority 2019, published 2023).

The test system of one data set is iPTH. The data set can be described thus: Phase 2 PK-PD Study: iPTH suppression in CKD patients with SHPT. The format is in vivo, human. Particulars: 25 mg once daily. How it is done: A randomized, double-blind, placebo-controlled phase 2 clinical study was conducted to assess the efficacy, pharmacokinetics (PK), pharmacodynamics (PD) and safety of 2-methyl-5-((2R,4S)-2-((((R)-1-(naphthalen-1-yl)ethyl)amino)methyl) chroman yl)benzoic acid, hydrochloride (Compound 3), as a monotherapy in patients with CKD with secondary hyperparathyroidism (SHPT). The patients enrolled in the study were either on dialysis or not on dialysis. Patients could continue taking doses (whether stable dosing or otherwise) of calcium supplements, phosphate binders, vitamin D, vitamin D analogues or a combination thereof for the treatment of SHPT in combination with Compound 3. Patients can take at least one calcium supplement, phosphate binder, vitamin D, vitamin D analogue or a combination thereof concurrently or concomitantly with Compound 3. Dosing for such calcium supplements, phosphate binders, vitamin D, vitamin D analogues or a combination thereof for the treatment of SHPT can be individualized based on patient's iPTH levels, and/or can correlate with doses presently used for the treatment of SHPT.
This was an open-label, non-randomized, single arm study enrolling 10 patients of which 6 patients were on dialysis and 4 were not on dialysis. All patients received 25 mg Compound 3, once daily for […], and thereafter underwent PK-PD assessments. All 6 patients (100%) on dialysis group completed the study while 2 patients out of 4 (50%) on not on dialysis group completed the study. One objective of this study were to determine PK parameters maximum concentration, time to maximum concentration, area under the curve (AUC) (AUC from time 0 up to the last quantifiable concentration; AUC from time 0 to infinity; AUC from time 0 to 24 hours), half-life, apparent clearance, and apparent volume of distribution from blood samples collected at scheduled time-points. Yet another objective of this study was to determine PD parameters mean absolute change and mean percentage change from baseline in corrected total serum calcium and phosphorus.
For efficacy assessments, the primary efficacy assessment included measurement of iPTH and the exploratory efficacy assessment included measurement of parathyroid gland size at scheduled time points. Blood samples for measurement of iPTH were collected during Day −30 to Day −1 (Screening Period); Day 1; Day 8+/−3 days; Day 15+/−3 days; Day 30+/−3 days; Day 60+/−3 days; and Day 90+/−3 days (EOT/Early Discontinuations). […] If the blood sample collected on Day 90 could not be analysed for any reason, the second blood sample had to be collected within 3 days of end of treatment (EOT). Chemiluminescence microparticles immunoassay (CMIA) (such as Abbott's ARCHITECT® Intact PTH assay) was used to quantify iPTH in serum and plasma. […]

Data set [1] in a line: Phase 2 Main Study: phosphate change from baseline. It counts as in vivo, human. The method, then:
For PK-PD assessments, blood samples for PK assessments were collected at scheduled time points (Screening Period; Day 1 (Pre-dose and post-dose); Day 2; Day 8 EOT (Pre-dose and post-dose); Day 9; Day 10; and Day 15+/−3 days (Follow-up visit)) in the PK-PD study. The PD profiling was done in parallel to the PK profiling in the PK-PD study. Blood samples (approximately 1×4 mL) for PK assessments were collected by venipuncture or cannulation at the selected time points into tubes containing dipotassium ethylenediaminetetraacetic acid (K2EDTA) anti-coagulant. The collected blood sample were kept on ice until centrifugation and later centrifuged at 4 °C at 5000 rpm for 10 minutes and the separated plasma collected in 2 tubes/aliquots. The plasma samples were stored at −20 °C or lower at the clinical centre until they were shipped for analysis. Blood samples (approximately 1×8 mL) for PD assessments were collected in PK-PD study and Main Study at selected time points The Main Study's selected time points were Screening Period; Day 1; Day 8+/−3 days; Day 15+/−3 days; Day 30+/−3 days; Day 60+/−3 days; and Day 90+/−3 days (EOT/Early Discontinuations). Blood samples (approximately 1×5 mL) for exploratory PD assessments for PK-PD study and Main Study were collected at selected time points.
Change from baseline to all measured and relevant time points was calculated. The baseline value for this study was the higher of the 2 values obtained during screening period for serum iPTH concentration, corrected total serum calcium and phosphorous. The baseline value for all other parameters was the last valid and planned visit value prior to first dose of IP in the study. For continuous data, summary statistics included the number, arithmetic mean, standard deviation (SD), median, minimum and maximum. For categorical data, frequency and percentage were presented.

For the compound `Cc1ccc([C@@H]2C[C@H](CN[C@H](C)c3cccc4ccccc34)Oc3ccccc32)cc1C(=O)O.Cl` [Compound 3, 2-methyl-5-((2R,4S)-2-((((R)-1-(naphthalen-1-yl)ethyl)amino)methyl)chroman-4-yl)benzoic acid hydrochloride], the “peak effect on iPTH suppression from baseline” value with iPTH (Day 1, within 4 hours of dosing, patients on dialysis and not on dialysis) was > 80.0%; in the data set on iPTH (Day 8, within 4 hours of dosing, patients not on dialysis), > 85.0%; in the data set on iPTH (Day 8, within 4 hours of dosing, patients on dialysis), > 70.0%. For the same compound, the “time of peak effect on iPTH suppression after dosing” value in the data set on iPTH (Day 1 and Day 8) is ≤ 4 h. The “phosphorous levels due to administration over a period of 90 days” value in data set [1] (CKD patients not on dialysis) and in data set [1] (CKD patients on dialysis) was “no increase” throughout. The “difference in mean percentage change in phosphate from baseline at the end of 90 days versus Placebo” value in data set [1] (patients not on dialysis, 10 mg and 5 mg arms) was “not significant”; in data set [1] (patients on dialysis, 10 mg, 20 mg and 25 mg arms), “not significant”.
